Key:
[1] = target: 5-HT1A (Homo sapiens, UniProt P08908); test: Functional assay at 5-HT1A (Fig. S4); assay type: cell-based
Text: (§1) Figure S4. […] Radioligand binding (RLB) (top) and IP1 functional assays (bottom) for 5-HT1A (A), 5-HT5a (B), 5-HT6 (C), and 5-HT7 (D) receptors. Agonist or antagonist mode is indicated in the title of each graph. Data represent the mean ± SEM of 2 technical replicates.
(§2) 5-carboxamidotryptamine; ND = not determined for incomplete curves.
(§3) (1 picture or pasted object on this page, not shown here)

[2] = target: T1, human recombinant 5-HT2AR (Homo sapiens, UniProt P28223); test: IP1 functional assay (5-HT2AR); assay type: cell-based; conditions: 5-HT2A, functional assay relevant to G protein activation (IP1), agonist mode
T1 construct: host or cells: CHO-K1
T1 sequence (P28223 whole entry): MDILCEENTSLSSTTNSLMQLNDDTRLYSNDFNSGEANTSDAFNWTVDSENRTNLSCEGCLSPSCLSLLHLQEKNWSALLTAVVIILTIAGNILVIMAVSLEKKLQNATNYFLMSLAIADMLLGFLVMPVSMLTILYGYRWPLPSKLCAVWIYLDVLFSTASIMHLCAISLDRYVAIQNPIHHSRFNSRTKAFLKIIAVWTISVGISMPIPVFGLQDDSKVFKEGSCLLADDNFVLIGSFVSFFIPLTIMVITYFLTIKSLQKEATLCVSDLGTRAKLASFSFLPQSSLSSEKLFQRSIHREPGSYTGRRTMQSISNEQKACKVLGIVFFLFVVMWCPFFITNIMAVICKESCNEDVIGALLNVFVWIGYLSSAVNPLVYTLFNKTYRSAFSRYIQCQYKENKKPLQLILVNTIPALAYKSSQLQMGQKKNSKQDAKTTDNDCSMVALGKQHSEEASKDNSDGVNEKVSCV

[3] = target: 5-HT7 (Homo sapiens, UniProt P34969); test: Functional assay at 5-HT7 (Fig. S4); assay type: cell-based
5-HT7, sequence (P34969 whole entry): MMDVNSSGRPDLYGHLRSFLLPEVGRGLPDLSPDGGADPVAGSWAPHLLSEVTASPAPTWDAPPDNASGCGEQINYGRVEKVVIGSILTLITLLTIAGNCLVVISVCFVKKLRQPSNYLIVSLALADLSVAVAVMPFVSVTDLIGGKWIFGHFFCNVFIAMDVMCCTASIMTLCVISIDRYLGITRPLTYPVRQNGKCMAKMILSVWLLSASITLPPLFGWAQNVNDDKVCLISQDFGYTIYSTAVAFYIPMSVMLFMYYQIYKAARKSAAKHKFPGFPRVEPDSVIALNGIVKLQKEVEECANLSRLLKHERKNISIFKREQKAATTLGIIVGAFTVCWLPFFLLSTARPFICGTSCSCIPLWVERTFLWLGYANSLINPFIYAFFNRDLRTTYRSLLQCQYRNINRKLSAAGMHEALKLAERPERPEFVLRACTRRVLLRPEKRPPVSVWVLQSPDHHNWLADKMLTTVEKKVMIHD
Text: as §1, §2, §3

[4] = test system: male Sprague Dawley rats; test: Rat forced swim test (FST); assay type: in vivo; conditions: for Swimming (Figure 6B) / Immobility (Figure 6B): 24 h after administration; for Swimming (Figure 6B): VEH 22.10 ± 1.929; for Immobility (Figure 6B): VEH 37.20 ± 1.867
Procedure: Reads were aligned to the GRCm39 genome assembly using STAR, processed with Picard, and counted with the Subread software. Transcript inclusion criteria consisted of a minimum raw expression level of 25 transcripts in a minimum of 4 samples. Surrogate variable analysis was conducted with the sva package 2023 release v3.5.0 in R and normalization and differential expression analysis was performed with DESeq2 v4.3 with a baseMean threshold of 10. Heatmaps were created with the pheatmap v1.0.12 with sample-wise z-scores plotted and both row and column grouping allowed using pearson's distances and ward.D for clustering. Gene-wise selection criteria for heatmaps were a baseMean expression threshold of 50 to focus on robustly expressed genes, p value < 0.05, and presence in the top 250 genes sorted by absolute value of log2FC. Additionally, z score was capped at 2 for visualization purposes. Schizophrenia gene sets were extracted from a recent TWAS study (30).
For Figure S8G, the TWAS set was filtered for FDR < 0.01. Permutation testing was conducted to quantify the overlap of top genes from schizophrenia TWAS with the perm_test function from the bulkWarehouse package 2023 release v1.2.7.
Briefly, the intersection of top differentially expressed genes and top TWAS genes is compared to an empirical distribution created by calculating the intersection with our top DEGs when randomly sampling candidate genes from our dataset equal to the size of the TWAS sample. Selection criteria from the TWAS include an expression level of 25 transcripts in a minimum of 4 samples in our dataset, FDR < 0.01 from the TWAS and top 250 sorted by absolute value of log2FC. Selection criteria from our gene set were an expression level of 25 transcripts in a minimum of 4 samples, p value < 0.1 and top 250 sorted by absolute value of log2FC.
Rat Forced Swim Test (FST). This study was performed by Psychogenics (Paramus, NJ). Male Sprague Dawley rats were purchased from Envigo (Indianapolis, IN), and were 8 weeks old at the time of the experiments. Upon receipt, they were assigned unique identification numbers (tail marked) and group housed in ventilated cages with 3 rats per cage. All animals […]
remained housed in groups of three for the remainder of the study. All rats were acclimated to the colony room for up to one week prior to dosing. During the period of acclimation, rats were examined and handled daily, and weighed to assure adequate health and suitability. The room temperature was maintained between 20 °C and 23 °C with a relative humidity of 30%–70%. Lab Rodent Diet 5001 (W.F. Fisher, Cat # 11015) and water were provided ad libitum. Animals were randomly assigned across treatment groups. All testing was performed during the light phase of the light/dark cycle. Behavioral testing was conducted according to established protocols approved by the IACUC committee and PGI Standard Operation Procedures (SOP). Each forced swim chamber was constructed of clear acrylic (height = 40 cm; diameter = 20.3 cm). Only one rat was placed in the swim chamber at a time for each swim test. The water was changed and the chamber cleaned between each animal. The water depth was 16 cm in the first swim session (pre-test) and 30 cm in the second swim session (test). The water was maintained at 23 °C ± 1 °C for all swim sessions. At the end of each swim test rats were dried with paper towels and returned to the home cage. All animals were carefully monitored to ensure their safety in the swim test and any animal unable to maintain a posture with its nose above water was immediately removed from the water and not used further in the study. Animals were first subjected to a pre-test for 15 min. Immediately after the pre-test, they were administered compounds or VEH via i.p. injection (1 ml/kg). Racemic ketamine hydrochloride (10 mg/kg) was used as a positive control. A salt correction factor of 1.36 was used when preparing formulations of (+)-JRT to ensure that the dose corresponded to that of the free base. […]

[5] = test system: cultured rat embryonic cortical neurons; test: Neuritogenesis assay (Sholl analysis, DIV6); assay type: cell-based
[6] = target: T2, 5-HT2A receptors (Gq activation) (Homo sapiens, UniProt P28223); test: BRET-based assay of Gq activation; assay type: cell-based
T2 construct: expressed in transfected cells; host or cells: HEK293T (transient)
T2 sequence (P28223 whole entry): as the sequence (P28223 whole entry) above

[7] = target: 5-HT2A receptor membrane preparations obtained from PSYLI2 cells (Homo sapiens, UniProt P28223); test: Ligand binding kinetics with [3H]-LSD on PSYLI2 membrane preparations; conditions: kinetics of competition binding vs [3H]-LSD
5-HT2A receptor membrane preparations obtained from PSYLI2 cells, sequence (P28223 1-263 limits assumed): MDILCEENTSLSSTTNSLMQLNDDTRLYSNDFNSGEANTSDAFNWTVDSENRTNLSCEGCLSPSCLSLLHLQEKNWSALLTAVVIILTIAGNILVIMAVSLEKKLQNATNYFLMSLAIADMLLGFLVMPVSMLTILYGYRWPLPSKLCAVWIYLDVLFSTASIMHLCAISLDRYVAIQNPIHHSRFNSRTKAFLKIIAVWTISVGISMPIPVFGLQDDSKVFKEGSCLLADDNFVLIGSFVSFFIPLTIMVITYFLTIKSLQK
5-HT2A receptor membrane preparations obtained from PSYLI2 cells, sequence (P28223 316-471 limits assumed): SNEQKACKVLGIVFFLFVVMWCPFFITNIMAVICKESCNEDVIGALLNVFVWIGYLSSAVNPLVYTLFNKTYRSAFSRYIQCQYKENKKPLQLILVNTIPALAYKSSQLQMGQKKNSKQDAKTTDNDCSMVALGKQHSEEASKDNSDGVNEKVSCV

5-HT1A, sequence (P08908 whole entry): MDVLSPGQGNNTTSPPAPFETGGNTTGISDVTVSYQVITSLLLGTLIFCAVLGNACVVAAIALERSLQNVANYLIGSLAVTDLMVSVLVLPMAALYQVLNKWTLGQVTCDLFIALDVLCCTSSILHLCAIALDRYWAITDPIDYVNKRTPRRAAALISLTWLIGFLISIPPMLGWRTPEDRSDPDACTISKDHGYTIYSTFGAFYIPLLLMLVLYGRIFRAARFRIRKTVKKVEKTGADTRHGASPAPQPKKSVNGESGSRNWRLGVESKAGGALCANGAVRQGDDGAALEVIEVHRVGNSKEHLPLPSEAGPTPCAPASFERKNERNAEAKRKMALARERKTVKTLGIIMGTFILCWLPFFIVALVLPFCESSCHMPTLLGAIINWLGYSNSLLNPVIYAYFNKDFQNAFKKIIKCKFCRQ

CCN(CC)C(=O)[C@@H]1C=C2c3cccc4ccn(c34)C[C@H]2N(C)C1 [(+)-JRT]
Functional activity at 5-HT1A [1]: agonist or partial agonist
Emax [2]: 81%
Functional activity at 5-HT7, agonist mode [3]: agonist or partial agonist
Swimming (Figure 6B) ([4]; 0.3mg/kg IP): 31.70 ± 2.534
Immobility (Figure 6B) ([4]; 0.3mg/kg IP): 27.20 ± 2.546
Swimming (Figure 6B) ([4]; 1.0mg/kg IP): 31.50 ± 1.778
Immobility (Figure 6B) ([4]; 1.0mg/kg IP): 27.70 ± 1.850
Potency relative to ketamine in the forced swim test ([4]; lowest effective dose not determined): at least 100 fold
Nmax (maximum number of crossings of the Sholl plots) ([5]; 1 μM, DIV6, compared to vehicle control): increased Nmax values to a greater extent than CLZ
Area under the curves of the Sholl plots (Figure S8D) ([5]; 1 µM, DIV6, VEH 1.000 ± 0.05010, mean ± SEM): 1.193 ± 0.05057
Total branches (Figure S8C) ([5]; 1 µM, DIV6, VEH 2.325 ± 0.2641, mean ± SEM): 4.121 ± 0.3838
Number of primary dendrites (Figure S8B) ([5]; 1 µM, DIV6, VEH 6.275 ± 0.2292, mean ± SEM): 8.152 ± 0.2824
EC50 ([6]; Gq Activation: EC50, agonist mode): 0.4 nM
EC50 ([6]; Gq Activation: EC50, antagonist mode, cotreated with 10 μM serotonin (5-HT + compound)): 931 nM
Emax ([6]; read-out: Gq Activation: EMax): 33%
Dissociation rate from the 5-HT2A receptor, fold faster than LSD [7]: approximately 10 fold
